These results are taken from PubChem BioAssay AID248 (DTP/NCI, 2004).

Inconclusive results and toxic doses are left out.

For this test, the system named is L1210 leukemia ip in BDF1 mice, survival T/C. The test is described as follows: NCI In Vivo Anticancer Drug Screen. Data for tumor model L1210 Leukemia (intraperitoneal) in B6D2F1 (BDF1) mice. Particulars: endpoint: mean survival time, higher = longer survival. Put shortly: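 In this screen, tumor-bearing mice given compound are compared to those given vehicle, and their survival values are reported as a treated-to-control quotient.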

As to `CN(Cc1cnc2nc(N)cc(N)c2n1)c1ccc(C(=O)NC(CCC(=O)O)C(=O)O)cc1` (stereo not drawn), the T/C runs as follows: (dose: 0.5 mg/kg/injection, schedule: Q01DX009 (ip), vehicle: other) 102 % of control; (dose: 1.0 mg/kg/injection, schedule: Q01DX009 (ip), vehicle: other) 100 % of control; (dose: 2.0 mg/kg/injection, schedule: Q01DX009 (ip), vehicle: other) 112 % of control; (dose: 4.0 mg/kg/injection, schedule: Q01DX009 (ip), vehicle: other) 105 % of control; (dose: 8.0 mg/kg/injection, schedule: Q01DX009 (ip), vehicle: other) 117 % of control; (dose: 50.0 mg/kg/injection, schedule: Q01DX009 (ip), vehicle: other) 154 % of control. Also, for the setting “dose: 100.0 mg/kg/injection, schedule: Q01DX009 (ip), vehicle: other”, the T/C is 164 % of control.

Take `N/C(=C\C(=O)c1ccccc1)C(=O)c1ccccc1`: the T/C is, setting by setting: (dose: 100.0 mg/kg/injection, schedule: Q04DX003 (ip), vehicle: Klucel (hydroxypropylcellulose) (HPC)) 103 % of control; (dose: 200.0 mg/kg/injection, schedule: Q04DX003 (ip), vehicle: Klucel (hydroxypropylcellulose) (HPC)) 108 % of control.

In the case of `Cc1cnc(C(N)=O)c(=O)[nH]1`, the T/C is 96 % of control (dose: 100.0 mg/kg/injection, schedule: Q01DX009 (ip), vehicle: saline); 100 % of control (dose: 100.0 mg/kg/injection, schedule: Q04DX003 (ip), vehicle: saline); 96 % of control (dose: 200.0 mg/kg/injection, schedule: Q01DX009 (ip), vehicle: saline); 100 % of control (dose: 200.0 mg/kg/injection, schedule: Q04DX003 (ip), vehicle: saline); 98 % of control (dose: 400.0 mg/kg/injection, schedule: Q01DX009 (ip), vehicle: saline); 97 % of control (dose: 400.0 mg/kg/injection, schedule: Q04DX003 (ip), vehicle: saline).

As to `Nc1ncnc2nc(-c3cccc(CNC(=O)c4ccccc4S(=O)(=O)F)c3)[nH]c12`, the T/C (dose: 25.0 mg/kg/injection, schedule: Q01DX001 (ip), vehicle: saline with Tween-80) is 93 % of control; the T/C (dose: 50.0 mg/kg/injection, schedule: Q01DX001 (ip), vehicle: saline with Tween-80) was 88 % of control; the T/C (dose: 100.0 mg/kg/injection, schedule: Q01DX001 (ip), vehicle: saline with Tween-80) is 87 % of control.
